According to patent US20120003191A1, “VALPROIC ACID, DERIVATIVES, ANALOGUES, AND COMPOSITIONS INCLUDING SAME AND METHODS FOR THEIR THERAPEUTIC USE” (priority 2009, published 2012):

Tests used:
α7+/− myotubes = assay: Quantification of myotube hypertrophy; type: cell-based, mouse
Procedure: α7^+/− myogenic cells were cultured on 1% gelatin-coated plastic plates in Ham's F-10 growth medium (20% FBS, 0.5% chick embryo extract, 5 ng/ml bFGF, 2 mM glutamine, 100 U/ml penicillin and 100 μg/ml streptomycin). After six passages, cells were grown in DMEM containing 20% FBS, 0.5% chick embryo extract, 2 mM glutamine, 100 U/ml penicillin and 100 μg/ml streptomycin. Differentiation was induced by switching the medium to DMEM containing 2% horse serum and antibiotics when cells attained 90% confluence. After 48 hours of differentiation, 2 mM VPA was added and supplied fresh every 24 hours. Wortmannin was used at 100 nM and added fresh every 24 hours.
[…] The cells were stained with anti-myosin heavy chain antibody (MF-20, 1:3 in 1% BSA in PBS) and FITC-conjugated donkey anti-mouse secondary antibody (1:200 in 1% BSA in PBS) for 1 hour each, and mounted in Vectashield with DAPI (Vector Laboratories, Burlingame, Calif.). Micrographs of ten fields were taken for VPA-treated and control myotubes using a Leica DMRXA2 microscope (Leica Microsystems, Germany), AxioCam digital camera (Zeiss Inc., Thorwood, N.Y.) and Openlab software (Improvision, Lexington, Mass.). Areas of myosin heavy chain positive myotubes were measured using Openlab software and the numbers of nuclei in each myotube were counted.
To test whether Akt activation by VPA in α7^+/− myotubes is dependent on PI3K, α7^+/− cells were differentiated for 48 hours and treated for 72 hours with 2 mM VPA with or without 100 nM Wortmannin. Fresh drugs were added every 24 hours. Phase-contrast micrographs of the cultures were captured at the end of 72 hours of treatment. To determine status of Akt activation in the cultures, α7^+/− myotubes were treated as above and protein extracts were made at the end of 72 hours of treatment using a 2% Triton X-100 extraction buffer (see below). Immunoblotting for phospho- and total Akt were done as detailed below.

mdx/utrn−/− mice = assay: Quantification of Evan's blue dye uptake in quadriceps; type: in vivo, mouse; details: 240 mg/kg i.p. twice daily for 5 weeks
Procedure: mdx/utrn−/− mice lack both dystrophin and utrophin, and were bred and genotyped as reported in Burkin, et al., Enhanced expression of the alpha 7 beta 1 integrin reduces muscular dystrophy and restores viability in dystrophic mice, J. Cell Biol. 152:1207-18 (2001). 240 mg/kg body weight of VPA was injected intraperitoneally twice daily into mdx/utrn^−/− mice (n=9) starting at 3 weeks of age, for a period of 5 weeks. Control mice were injected with saline (n=9). Body-weights were determined daily. On the 35th day of injection of VPA, mice were injected intraperitoneally with 100 mg/kg body weight of Evan's blue dye. After 24 hours, the quadriceps muscles were collected, frozen in liquid nitrogen-cooled isopentane and stored at −80° C. 8 μm cryosections of quadriceps were fixed in ice-cold methanol for 1 minute and washed in PBS three times for 5 minutes each. To delineate muscle fibers, the sections were incubated for 10 minutes at room temperature in FITC-conjugated wheat-germ agglutinin (WGA) (Invitrogen) diluted 1:500 in PBS. The sections were washed three times in PBS, 5 minutes each time, and the percentage of Evan's blue dye positive fibers in three sections taken 40 μm apart were counted (approximately 5000 fibers total) for each mouse.

## CCCC(CCC)C(=O)O [VPA, valproic acid]
α7+/− myotubes; 2 mM VPA
  number of nuclei per myotube compared to untreated controls: greater numbers of nuclei per myotube
α7+/− myotubes; 2 mM VPA, 72 hours
  myotube area per nucleus, greater than control: 1.6 fold
  myotube size compared to controls (micrographs): larger compared to controls
α7+/− myotubes; 30 mM VPA for 1 hour, observed 72 hours later
  myotube size compared to controls after 1 hour exposure: larger compared to controls
mdx/utrn−/− mice
  fewer damaged (Evans blue positive) fibers than saline: approximately 2 fold
